In patent US7906551B2 (Rottapharm S.p.A., priority 2006, dated 2011):
Like-named read-outs stand apart in the source and are kept apart here.

What was measured:
[1] = tested on: rat model of edema induced by carragenine; experiment: Carrageenan-induced paw edema; type: in vivo; details: 1 h, 60 min, 20 mg/Kg, read-out: Edema inhibition 60 min, MPE
Experimental: (§1) Male Swiss albino mice (23-25 g) and Sprague Dawley or Wistar rats (150-200 g) were used. The animals were fed a standard laboratory diet and tap water ad libitum and kept at 23±1° C. with a 12 h light/dark cycle, light on at 7 a.m.
Rats paw volumes were measured using a plethysmometer. Rats received the investigated compounds 4 hours after a 0.1-ml injection of 1.0% carrageenan in the right hind paw. Five hours after the injection of carrageenan (i.e. 1 hour after the administration of the investigated compound), the paw volume of the right hind paw was measured and compared with saline/carrageenan-treated controls. Results are reported as maximum percent effect (MPE), see below for detailed explanation.

[2] = tested on: rat model of hyperalgesia induced by Zymosan; experiment: Zymosan-induced hyperalgesia (Randal-Selitto); type: in vivo; details: oral, 4 mg/Kg
Experimental: as §1
(§2) The interplantar injection of Zymosan-induced mechanical hyperalgesia may be used as a model of inflammatory pain (Meller, Neuropharmacology, 1994, 33, 1471-1478). In this model, typically a male Sprague-Dawely or Wistar rat (200-250 g) receives an interplantar injection of 4 mg/100 μl zymosan into one hind paw. A marked inflammation occurs in this hind paw. Drugs are administered orally for evaluation of efficacy, 30 min. before the inflammatory insult. The hyperalgesia induced by zymosan administration was evaluated using the Randal-Selitto method (Arch. Int. Pharmacodyn., 1957, 111, 409). The quantitation of the analgesic effect is achieved by an analgesimeter, which consist in applying to the inflamed paw an increasing weight (from 130-140 g up to 500 g). The difference in the mechanical pain threshold between the basal value (generally 230-250 g) and the one tolerated by the animals treated with the drug, determined 4 hours after the inflammatory challenge, is defined as mechanical hyperalgesia.
Mechanical hyperalgesia is expressed for the compounds of the invention as maximum percent effect (MPE) which represents the difference (%) in pain threshold between the animals treated with the drug and the controls that received only the vehicle.
Results are reported as MPE (reduction of the nociceptive effect, due to paw loading with increasing weight, in comparison to controls). 100% MPE means that the animal treated with the compound and Zymosan can tolerate the same stimulus (weight) as the control animals which have not received Zymosan treatment. MPE higher than 100% mean that the animal treated with the compound and Zymosan can tolerate stimuli (weight) higher than the control animals, which has not received Zymosan treatment (hypoalgesia).

[3] = tested on: rat model of edema induced by Zymosan; experiment: Zymosan-induced paw edema; type: in vivo; details: oral, 4 mg/Kg
Experimental: as §1, §2
In vivo anti-inflammatory effect exerted by the compounds of the invention can be assessed in the same Zymosan induced inflammation test described above, by measuring the volume of the oedema induced by the inflammatory agent. The oedema was evaluated as the increase in the volume of the Zymosan injected paw within a time of 0-2 hrs. The measurements of the variation of the oedema volume of the paw were recorded using hydroplethysmometer. Results are expressed as MPE, maximum percent effect, that in this case represents the reduction (%) in the oedema of treated animals in comparison to controls (animals treated with Zymosan, which received only the vehicle).

COX-2 [4] = biological target: T1, COX-2 (Mus musculus, UniProt Q05769); experiment: Assessment of COX-2 activity in LPS-stimulated J774 cells (PGE2 radioimmunoassay); type: cell-based, murine
T1 construct: lipopolysaccharide (LPS, 10 μg/mL) to induce COX-2; endogenous in cells; host or cells: J774 murine monocyte/macrophage cell line, LPS-stimulated
T1 sequence (Q05769 18-604): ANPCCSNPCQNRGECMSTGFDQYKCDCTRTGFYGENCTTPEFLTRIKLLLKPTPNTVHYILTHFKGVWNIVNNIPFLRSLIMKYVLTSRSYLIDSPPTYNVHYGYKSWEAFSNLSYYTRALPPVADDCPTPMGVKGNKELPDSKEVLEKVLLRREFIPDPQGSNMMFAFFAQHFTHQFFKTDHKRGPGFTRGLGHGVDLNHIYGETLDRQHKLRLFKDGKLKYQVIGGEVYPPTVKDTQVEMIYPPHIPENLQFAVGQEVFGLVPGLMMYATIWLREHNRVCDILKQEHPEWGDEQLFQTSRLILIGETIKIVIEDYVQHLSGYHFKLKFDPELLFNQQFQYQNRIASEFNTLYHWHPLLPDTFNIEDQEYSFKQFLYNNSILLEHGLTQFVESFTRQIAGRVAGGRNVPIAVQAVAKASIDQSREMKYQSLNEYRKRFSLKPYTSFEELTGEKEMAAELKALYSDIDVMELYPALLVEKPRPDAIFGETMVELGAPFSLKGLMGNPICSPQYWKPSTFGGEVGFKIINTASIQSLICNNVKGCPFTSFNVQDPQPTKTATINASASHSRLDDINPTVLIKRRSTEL
Experimental: Cells were stimulated for 24 h with E. coli lipopolysaccharide (LPS, 10 μg/mL) to induce COX-2, in the absence or presence of test compounds, at the concentrations previously reported. The supernatants were collected for the measurement of PGE2 by radioimmunoassay.
(§3) Analysis. Throughout the time the experiments lasted, triplicate wells were used for the various conditions of treatment. Results are expressed as the mean, for 3 experiments, of the % inhibition of PGE2 production by test compounds with respect to control samples. Data fit was obtained using the sigmoidal dose-response equation (variable slope). The IC50 were calculated by GraphPad Instat program (GraphPad software).

[5] = tested on: rat model of hyperalgesia induced by carragenine; experiment: Paw pressure test, hyperalgesia induced by carragenine; type: in vivo; details: 20 mg/Kg
Experimental: as §1
The nociceptive threshold in the rat was determined with an analgesimeter, according to the method described by Leighton et al, G. E.; Br. J. Pharmacol. 1988, 93, 553-560. Threshold pressure was measured before and 30, 60 and 120 min after treatment. An arbitrary cut-off value of 250 g was adopted. In order to induce an inflammatory process in the rat paw carrageenan (0.1 ml, 1%) was administered i.p. 4 h before test.

COX-1 [6] = biological target: T2, COX-1 (Mus musculus, UniProt P22437); details: Table 1, reported by reference; cited from earlier work
T2 construct: endogenous in cells; host or cells: J774 murine monocyte/macrophage cell line
T2 sequence (P22437 27-602): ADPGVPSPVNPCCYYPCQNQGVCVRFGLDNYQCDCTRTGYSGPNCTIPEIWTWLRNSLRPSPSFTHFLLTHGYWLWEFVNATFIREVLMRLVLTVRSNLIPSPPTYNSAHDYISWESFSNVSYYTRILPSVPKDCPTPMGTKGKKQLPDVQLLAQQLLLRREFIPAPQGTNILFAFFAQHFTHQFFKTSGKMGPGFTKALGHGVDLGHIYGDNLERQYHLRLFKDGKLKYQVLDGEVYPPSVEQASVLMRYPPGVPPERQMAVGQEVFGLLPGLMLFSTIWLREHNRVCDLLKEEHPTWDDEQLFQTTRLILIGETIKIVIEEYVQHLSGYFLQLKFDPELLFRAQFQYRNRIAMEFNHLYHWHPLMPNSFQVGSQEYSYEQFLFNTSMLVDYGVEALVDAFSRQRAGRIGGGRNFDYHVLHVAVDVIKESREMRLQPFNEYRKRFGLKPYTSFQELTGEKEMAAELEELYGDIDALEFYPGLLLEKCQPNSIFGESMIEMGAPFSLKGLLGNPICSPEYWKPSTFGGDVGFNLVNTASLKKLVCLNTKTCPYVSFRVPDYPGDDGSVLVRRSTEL

COX-2 [7] = biological target: T1, COX-2; details: Table 1, reported by reference; cited from earlier work
COX-1 [8] = biological target: T2, COX-1; experiment: Assessment of COX-1 activity in J774 cells (arachidonic acid, PGE2 radioimmunoassay); type: cell-based, murine; details: Table 8, Formula I-c
Experimental: Stock solutions of the reference standard or of the test compounds were prepared in dimethyl sulphoxide, and an equivalent amount of dimethyl sulphoxide was included in control samples. At the end of the incubation the supernatants were collected for the measurement of PGE2 by radioimmunoassay.
as §3

[9] = read-out: in vitro COX-2 inhibitory potency IC50
[10] = 0.5 h, 30 min, read-out: Analgesia 30 min MPE
[11] = 1 h, 60 min, read-out: Analgesia 60 min MPE
[12] = Table 8, Formula I-c, read-out: COX-2 IC50

SMILES: CCOC(=O)Cc1cc(-c2ccc(S(C)(=O)=O)cc2)n(-c2ccc(F)c(F)c2)c1C [Compound 5b, Ethyl 2-[1-(3,4-difluoro)phenyl-2-methyl-5-(4-methylsulphonyl)phenyl-1H-pyrrol-3-yl]acetate, reference compound]
- inhibition in vivo at 20 mg/kg [1]: 30%
- Analgesia 0-2 hrs MPE [2]: 9%
- Analgesia 0-6 hrs MPE [2]: 12%
- Edema 0-2 hrs MPE [3]: 8%
- Edema 0-6 hrs MPE [3]: 6%
- selectivity (COX-2 [4]): > 5000
- IC50 (COX-2 [4]; [9]): 0.02 µM
- inhibition in vivo at 20 mg/kg [5, 10]: 30%
- inhibition in vivo at 20 mg/kg [5, 11]: 36%

SMILES: Cc1ccc(-n2c(-c3ccc(S(C)(=O)=O)cc3)cc(CC(=O)O)c2C)cc1 [Compound 2a, 2-[1-(4-methyl)phenyl-2-methyl-5-(4-methylsulphonyl)phenyl-1H-pyrrol-3-yl]acetic acid]
- IC50 (COX-1 [6]): > 100 µM
- COX-1/COX-2 Selectivity Index (IC50 ratio) (COX-2 [7]): >200

SMILES: CCOC(=O)C(O)c1cc(-c2ccc(S(C)(=O)=O)cc2)n(-c2ccc(OC)cc2)c1C (racemic) [Example 8, Ethyl[2-hydroxy-2-[1-(4-methoxy)phenyl-2-methyl-5-(4-methylsulphonyl)phenyl-1H-pyrrol-3-yl]]acetate]
- melting point: 130 °C

SMILES: CCOC(=O)Cc1cc(-c2ccc(S(C)(=O)=O)cc2)n(-c2ccc(C)cc2)c1C [Compound 2b, Ethyl 2-[1-(4-methyl)phenyl-2-methyl-5-(4-methylsulphonyl)phenyl-1H-pyrrol-3-yl]acetate]
- IC50 (COX-1 [6]): > 100 µM
- COX-1/COX-2 Selectivity Index (IC50 ratio) (COX-2 [7]): >200

SMILES: CCCCOC(=O)Cc1cc(-c2ccc(S(C)(=O)=O)cc2)n(-c2ccccc2)c1C [Example 6, n-Butyl[1-phenyl-2-methyl-5-(4-methylsulphonyl)phenyl-1H-pyrrol-3-yl]acetate]
- melting point: 124 °C
- COX-1/COX-2 Selectivity Index (IC50 ratio) (COX-2 [4]; Table 2, Formula Ia): >7100

SMILES: CCOC(=O)Cc1cc(-c2ccc(S(C)(=O)=O)cc2)n(-c2ccc(C(F)(F)F)cc2)c1C [Compound 3b, Ethyl 2-[2-methyl-5-(4-methylsulphonyl)phenyl-1-(4-trifluoromethyl)phenyl-1H-pyrrol-3-yl]acetate]
- IC50 (COX-1 [6]): > 100 µM
- COX-1/COX-2 Selectivity Index (IC50 ratio) (COX-2 [7]): >1600

SMILES: Cc1c(CC(=O)O)cc(-c2ccc(S(C)(=O)=O)cc2)n1-c1ccc(C(F)(F)F)cc1 [Compound 3a]
- IC50 (COX-1 [6]): > 100 µM
- COX-1/COX-2 Selectivity Index (IC50 ratio) (COX-2 [7]): >900

SMILES: CCCNC(=O)NCCc1cc(-c2ccc(S(C)(=O)=O)cc2)n(-c2ccccc2)c1C [Example 39, N-[2-(2-Methyl-5-(4-(methylsulphonyl)phenyl)-1-phenyl-1H-pyrrol-3-yl)ethyl]-3-propyl urea]
- melting point: 157 to 160 °C

SMILES: CCOC(=O)Cc1cc(-c2ccc(S(C)(=O)=O)cc2)n(-c2ccccc2)c1C [Compound 1b, Ethyl 2-[2-methyl-5-(4-methylsulphonyl)phenyl-1-phenyl-1H-pyrrol-3-yl]acetate, reference compound]
- inhibition in vivo at 20 mg/kg [1]: 10%
- IC50 (COX-1 [6]): > 100 µM
- COX-1/COX-2 Selectivity Index (IC50 ratio) (COX-2 [7]): >2500
- inhibition in vivo at 20 mg/kg [5, 10]: 18%
- inhibition in vivo at 20 mg/kg [5, 11]: 30%

SMILES: CCOC(=O)Cc1cc(-c2ccc(S(C)(=O)=O)cc2)n(-c2cccc(F)c2)c1C [Compound 4b, Ethyl 2-[1-(3-fluoro)phenyl-2-methyl-5-(4-methylsulphonyl)phenyl-1H-pyrrol-3-yl]acetate, reference compound]
- inhibition in vivo at 20 mg/kg [1]: 30%
- selectivity (COX-2 [4]): > 10000
- IC50 (COX-2 [4]; [9]): 0.01 µM
- inhibition in vivo at 20 mg/kg [5, 10]: 28%
- inhibition in vivo at 20 mg/kg [5, 11]: 40%

SMILES: CNC(=O)Cc1cc(-c2ccc(S(C)(=O)=O)cc2)n(-c2ccccc2)c1C [Example 13, N-Methyl-[2-methyl-5-(4-methylsulphonyl)phenyl-1-phenyl-1H-pyrrol-3-yl]acetamide]
- melting point: 178 to 181 °C
- IC50 (COX-1 [8]): > 100 µM
- IC50 (COX-2 [4]; [12]): 1 µM

SMILES: Cc1c(CC(=O)N(C)C)cc(-c2ccc(S(C)(=O)=O)cc2)n1-c1ccccc1 [Example 15, N,N-Dimethyl-[2-methyl-5-(4-methylsulphonyl)phenyl-1-phenyl-1H-pyrrol-3-yl]acetamide]
- melting point: 175 to 179 °C
- IC50 (COX-1 [8]): > 100 µM
- IC50 (COX-2 [4]; [12]): 0.58 µM

SMILES: Cc1c(CC(=O)O)cc(-c2ccc(S(C)(=O)=O)cc2)n1-c1ccccc1 [Compound 1a, 2-[2-methyl-5-(4-methylsulphonyl)phenyl-1-phenyl-1H-pyrrol-3-yl]acetic acid]
- IC50 (COX-1 [6]): > 100 µM
- COX-1/COX-2 Selectivity Index (IC50 ratio) (COX-2 [7]): >100

SMILES: CCOC(=O)C(O)c1cc(-c2ccc(S(C)(=O)=O)cc2)n(-c2ccccc2)c1C (racemic) [Example 7, Ethyl[2-hydroxy-2-[2-methyl-5-(4-methylsulphonyl)phenyl-1-phenyl-1H-pyrrol-3-yl]]acetate]
- melting point: 145 °C
